Laboratory results from paper PMC7862507, “Adrenomedullin for steroid-resistant ulcerative colitis: a randomized, double-blind, placebo-controlled phase-2a clinical trial” (Journal of Gastroenterology, 2020).

Legend:
[1] = system: patients with steroid-resistant UC; experiment: Dose of concomitant steroid, phase-2a clinical trial; assay type: in vivo, Japanese patients; conditions: n = 3, mean ± SD, placebo 11.3 ± 6.4
Experimental: (§1) After hospitalization, patients received a continuous infusion of the assigned drug for 8 h per day for a total of 14 days. After the final administration of the investigational drug, patients were subjected to safety examinations and then discharged. But, if necessary due to disease activity, continuous hospitalization was allowed. Patients were requested to make an office visit at 4 and 8 weeks. Evaluations of their Mayo scores including endoscopic examinations were done at 2 and 8 weeks, whereas evaluation of the Lichtiger index was done at 2, 4, and 8 weeks. The dose of concomitant steroid was maintained for 2 weeks after drug administration, and then, a reduction in the steroid dose was allowed depending on the disease condition. Changes to the doses of other drugs, such as aminosalicylic acid, were prohibited throughout the trial.
(§2) All data were collected at each institute from March 2017 to April 2019. The primary endpoint was the change in the Mayo scores at 2 weeks. Secondary endpoints included the change in the Mayo scores at 8 weeks and the rate of clinical remission at 2 and 8 weeks, defined as a Mayo score 0; the response rate of the Mayo scores at 2 and 8 weeks, defined as an improvement of a 3-point or more decrease or at least a 30% decrease from baseline; the changes in MES at 2 and 8 weeks; the changes in the Lichtiger index at 2, 4, and 8 weeks; the changes in fecal calprotectin and FIT at 2 weeks; and finally, the changes in the given dose of steroid.
(§3) The significant level for each test was 5%. […] All data are shown as mean ± standard deviation (SD).

[2] = system: patients with steroid-resistant UC; experiment: Mayo endoscopy subscore (MES), phase-2a clinical trial; assay type: in vivo, Japanese patients; conditions: mean ± SD
From the text: (§4) Patients had to meet all criteria, namely, a Mayo score of 6 or more, a rectal bleeding subscore of at least 1, and Mayo endoscopy subscore (MES) of at least 2, at entry. Main exclusion criteria were as follows: patients with fulminant UC, patients with precancerous lesion in the colon, medication history of biologics within the last 3 months, patients with malignancy or any history of malignancy, and patients with active infection. We excluded patients with a systolic blood pressure under 90 mmHg and a pulse rate under 45 bpm for safety reasons due to the vasodilatory effect of AM. All patients provided written informed consent for all study-related procedures and were requested to be hospitalized for 2 weeks.
(§5) Patients were enrolled after confirmation of steroid-resistance defined as at least daily treatment with 30 mg or more of prednisolone. Screening tests including measurements of vital signs, blood and urine examinations, as well as a 12-lead electrocardiography (ECG), were conducted within 2 weeks prior to administration. Demographic data and disease characteristics including endoscopic disease activity of patients were also collected before randomization. Endoscopic subscores were assessed by on-site investigators and were not subjected to central review. Clinical disease activity was assessed by expert doctors according to the Mayo score and Lichtiger index. Stool samples were collected before administration of the investigational drug and after 2 weeks of treatment initiation. Measurements of fecal calprotectin and […] (FITs) were performed by a commercially available laboratory testing service (BML, Tokyo, Japan) in compliance with GCP. Additionally, measurements of complement components including CH50, C1q, C3, and C4 and evaluation of the absolute number of hematopoietic stem cells in the peripheral blood were performed before and after 2, 4, and 8 weeks by other laboratory testing services (SRL medisearch, Tokyo, Japan and LSI medience, Tokyo, Japan, respectively). The absolute number of hematopoietic stem cells in the peripheral blood was measured as CD34-positive cells using CD45FITC/CD34PE, 7AAD kit (Becton Dickinson Immunocytometry System, USA) and flow cytometry.
as §1, §2, §3

[3] = system: patients with steroid-resistant UC; experiment: Lichtiger index, phase-2a clinical trial; assay type: in vivo, Japanese patients; conditions: mean ± SD
From the text: as §4, §5, §1, §2, §3

[4] = Plasma concentration of adrenomedullin (pharmacokinetics); conditions: human, intravenous
Experimental: Serum concentrations of AM were assessed at predose, 4 and 8 h, and 2 h after administration (10 h after the start of drug administration) on 1, 8, and 14 days of the administration. […] Measurements and data processing were carried by the Bozo Research Centre (Tsukuba, Japan). The evaluated pharmacokinetic (PK) parameters included the maximum measured plasma concentration (Cmax); the time to maximum measured plasma concentration (Tmax); and the cumulative area under the plasma concentration–time curve (AUC) from time 0 to time 10 h.
The Cmax and Tmax values were obtained directly from the data, while the AUC was calculated using the Phoenix WinNonlin software 6·1 (Pharsight, CA, USA). All data are shown as mean ± standard deviation (SD).

[5] = system: steroid-resistant UC; conditions: 9 ng/kg/min of AM; real dose might have been higher (1.4-fold dose of bulk powder used); cited from earlier work
From the text: A high rate of the placebo effect has been reported in a previous trial for UC [1–3]. High response rates in the placebo group have occasionally obstructed the successful accomplishment of clinical trials for active UC [19]. In this trial, we were concerned about the major impact from the placebo effect because attending patients received hospitalization and bed rest for 2 weeks. Figure 2 illustrates the changes in clinical indexes and fecal markers of each patient at 2 weeks.

[6] = system: patients with steroid-resistant UC; experiment: Mayo score, phase-2a clinical trial; assay type: in vivo, Japanese patients; conditions: mean ± SD
From the text: as §4, §5, §1, §2, §3

CC[C@H](C)[C@H](NC(=O)[C@H](CCC(N)=O)NC(=O)[C@H](Cc1c[nH]cn1)NC(=O)[C@H](C)NC(=O)[C@H](CC(C)C)NC(=O)[C@H](CCCCN)NC(=O)[C@H](CCC(N)=O)NC(=O)[C@@H](NC(=O)[C@@H](NC(=O)[C@@H]1CSSC[C@H](NC(=O)CNC(=O)[C@H](Cc2ccccc2)NC(=O)[C@H](CO)NC(=O)[C@H](CCCNC(=N)N)NC(=O)[C@H](CC(C)C)NC(=O)CNC(=O)[C@H](CCC(N)=O)NC(=O)[C@H](Cc2ccccc2)NC(=O)[C@H](CC(N)=O)NC(=O)[C@H](CC(N)=O)NC(=O)[C@H](CCSC)NC(=O)[C@H](CO)NC(=O)[C@H](CCC(N)=O)NC(=O)[C@H](CCCNC(=N)N)NC(=O)[C@@H](N)Cc2ccc(O)cc2)C(=O)N[C@@H](CCCNC(=N)N)C(=O)N[C@@H](Cc2ccccc2)C(=O)NCC(=O)N[C@@H]([C@@H](C)O)C(=O)N1)[C@@H](C)O)C(C)C)C(=O)N[C@@H](Cc1ccc(O)cc1)C(=O)N[C@@H](CCC(N)=O)C(=O)N[C@@H](Cc1ccccc1)C(=O)N[C@H](C(=O)N[C@@H](CC(=O)O)C(=O)N[C@@H](CCCCN)C(=O)N[C@@H](CC(=O)O)C(=O)N[C@@H](CCCCN)C(=O)N[C@@H](CC(=O)O)C(=O)N[C@@H](CC(N)=O)C(=O)N[C@H](C(=O)N[C@@H](C)C(=O)N1CCC[C@H]1C(=O)N[C@@H](CCCNC(=N)N)C(=O)N[C@@H](CO)C(=O)N[C@@H](CCCCN)C(=O)N[C@H](C(=O)N[C@@H](CO)C(=O)N1CCC[C@H]1C(=O)N[C@@H](CCC(N)=O)C(=O)NCC(=O)N[C@@H](Cc1ccc(O)cc1)C(N)=O)[C@@H](C)CC)C(C)C)[C@@H](C)O [Adrenomedullin]
dose of steroid at 8 weeks ([1]; AM 5 ng/kg/min group): 5.0 ± 8.7 mg
dose of steroid at 8 weeks ([1]; AM 10 ng/kg/min group): 10.0 ± 10.0 mg
dose of steroid at 8 weeks ([1]; AM 15 ng/kg/min group): 16.7 ± 12.6 mg
MES (Mayo endoscopic sub-score) ([2]; AM 5 ng/kg/min infusion 8 h/day x 14 days, 2 week, n = 4, baseline 2.3 ± 0.5, placebo 2.0 ± 0.6): 1.5 ± 0.6
Change of MES ([2]; AM 5 ng/kg/min infusion 8 h/day x 14 days, 2 week, n = 4, placebo -0.5 ± 0.8, P = 0.67 vs. placebo): -0.8 ± 1.0
MES (Mayo endoscopic sub-score) ([2]; AM 5 ng/kg/min infusion 8 h/day x 14 days, 8 week, n = 3, placebo 2.0 ± 1.4 (n = 2)): 0.7 ± 0.6
Change of MES ([2]; AM 5 ng/kg/min infusion 8 h/day x 14 days, 8 week, n = 3, placebo -0.5 ± 2.1 (n = 2), P = 0.47 vs. placebo): -1.7 ± 1.2
MES (Mayo endoscopic sub-score) ([2]; AM 10 ng/kg/min infusion 8 h/day x 14 days, 2 week, n = 5, baseline 2.2 ± 0.4, placebo 2.0 ± 0.6): 2.2 ± 0.8
Change of MES ([2]; AM 10 ng/kg/min infusion 8 h/day x 14 days, 2 week, n = 5, placebo -0.5 ± 0.8, P = 0.32 vs. placebo): 0.0 ± 0.7
MES (Mayo endoscopic sub-score) ([2]; AM 10 ng/kg/min infusion 8 h/day x 14 days, 8 week, n = 3, placebo 2.0 ± 1.4 (n = 2)): 2.0 ± 0.0
Change of MES ([2]; AM 10 ng/kg/min infusion 8 h/day x 14 days, 8 week, n = 3, placebo -0.5 ± 2.1 (n = 2), P = 0.69 vs. placebo): 0.0 ± 0.0
MES (Mayo endoscopic sub-score) ([2]; AM 15 ng/kg/min infusion 8 h/day x 14 days, 2 week, n = 6, baseline 2.5 ± 0.5, placebo 2.0 ± 0.6): 2.3 ± 1.0
Change of MES ([2]; AM 15 ng/kg/min infusion 8 h/day x 14 days, 2 week, n = 6, placebo -0.5 ± 0.8, P = 0.49 vs. placebo): -0.2 ± 0.8
MES (Mayo endoscopic sub-score) ([2]; AM 15 ng/kg/min infusion 8 h/day x 14 days, 8 week, n = 3, placebo 2.0 ± 1.4 (n = 2)): 0.0 ± 0.0
Change of MES ([2]; AM 15 ng/kg/min infusion 8 h/day x 14 days, 8 week, n = 3, placebo -0.5 ± 2.1 (n = 2), P = 0.27 vs. placebo): -2.0 ± 0.0
Lichitiger index ([3]; AM 5 ng/kg/min infusion 8 h/day x 14 days, at 2 weeks, n = 4, baseline 10.8 ± 2.9, placebo 7.0 ± 5.8): 5.5 ± 5.6
Lichitiger index ([3]; AM 5 ng/kg/min infusion 8 h/day x 14 days, at 4 weeks, n = 3, placebo 3.5 ± 3.7): 2.0 ± 1.7
Lichitiger index ([3]; AM 5 ng/kg/min infusion 8 h/day x 14 days, at 8 weeks, n = 3, placebo 2.3 ± 4.0): 1.3 ± 1.2
Lichitiger index ([3]; AM 10 ng/kg/min infusion 8 h/day x 14 days, at 2 weeks, n = 5, baseline 12.2 ± 0.4, placebo 7.0 ± 5.8): 7.8 ± 3.8
Lichitiger index ([3]; AM 10 ng/kg/min infusion 8 h/day x 14 days, at 4 weeks, n = 3, placebo 3.5 ± 3.7): 4.7 ± 4.7
Lichitiger index ([3]; AM 10 ng/kg/min infusion 8 h/day x 14 days, at 8 weeks, n = 3, placebo 2.3 ± 4.0): 5.7 ± 4.5
Lichitiger index ([3]; AM 15 ng/kg/min infusion 8 h/day x 14 days, at 2 weeks, n = 6, baseline 12.0 ± 1.7, placebo 7.0 ± 5.8): 6.5 ± 4.4
Lichitiger index ([3]; AM 15 ng/kg/min infusion 8 h/day x 14 days, at 4 weeks, n = 3, placebo 3.5 ± 3.7): 1.3 ± 1.5
Lichitiger index ([3]; AM 15 ng/kg/min infusion 8 h/day x 14 days, at 8 weeks, n = 3, placebo 2.3 ± 4.0): 0.3 ± 0.6
AUC(0-t) ([4]; 5 ng/kg/min): 0.152 ± 0.034 ng·h/mL
AUC(0-t) ([4]; 10 ng/kg/min): 0.281 ± 0.039 ng·h/mL
AUC(0-t) ([4]; 15 ng/kg/min): 0.44 ± 0.191 ng·h/mL
improvement in steroid-resistant UC [5]: significant improvement
Mayo score ([6]; AM 5 ng/kg/min infusion 8 h/day x 14 days, at 2 weeks, n = 4, baseline 9.5 ± 1.0, placebo 6.8 ± 3.6): 5.0 ± 3.2
Mayo score ([6]; AM 5 ng/kg/min infusion 8 h/day x 14 days, at 8 weeks, n = 3, placebo 4.5 ± 3.5 (n = 2)): 2.0 ± 1.7
Mayo score ([6]; AM 10 ng/kg/min infusion 8 h/day x 14 days, at 2 weeks, n = 5, baseline 8.8 ± 1.1, placebo 6.8 ± 3.6): 7.2 ± 2.7
Mayo score ([6]; AM 10 ng/kg/min infusion 8 h/day x 14 days, at 8 weeks, n = 3, placebo 4.5 ± 3.5 (n = 2)): 5.7 ± 2.5
Mayo score ([6]; AM 15 ng/kg/min infusion 8 h/day x 14 days, at 2 weeks, n = 6, baseline 9.8 ± 1.6, placebo 6.8 ± 3.6): 7.0 ± 4.1
Mayo score ([6]; AM 15 ng/kg/min infusion 8 h/day x 14 days, at 8 weeks, n = 3, placebo 4.5 ± 3.5 (n = 2)): 0.0 ± 0.0
